Measurements reported in patent publication US7537765B2, “Inhibition of HIV-1 replication by disruption of the processing of the viral capsid-spacer peptide 1 protein” (priority 2003, dated 2009).

Key:
Format in all cases: cell-based
[1] = tested on: HIV-1 infected MAGI cells; settings: HIV-1 infected MAGI cells
Description: To distinguish the inhibitory activity of DSB against early and late replication targets, a multinuclear activation of a galactosidase indicator (MAGI) assay was used. In this assay, the targets are HeLa cells stably expressing CD4, CXCR4, CCR5 and a reporter construct consisting of the—galactosidase gene (modified to localize to the nucleus) driven by a truncated HIV-1 LTR. Infection of these cells results in expression of Tat that drives activation of the β-galactosidase reporter gene. Expression of β-galactosidase in infected cells is detected using the chromogenic substrate X-gal.

SIVmac239 chimeric virus = experiment: Gag processing of SIVmac239 chimeric mutants with HIV-1 CA-SP1 residues (Western blot); settings: SIV DM chimeric virus (printed SWV.DM), 1 μg/ml
Description: A panel of SIV chimeric constructs harboring various residues of NL4-3 CA-SP1 boundary region was generated using the SIVmac239 molecular clone by employing PCR and cloning procedures described above. SIV mac239 was used to generate the SIV DD and DE constructs. The SIV DD construct was used to generate SIV DM. Different SIV chimeric constructs were produced in the PCR by varying respective mutagenic upstream and downstream primers corresponding to each chimera (Table 1). Each of these parallel two adjacent PCR fragments was gel purified and directly used without phospohorylation treatment for a subsequent amplification with universal upstream primer (Primer. 31) and downstream primer (Primer 32). This product was gel purified, digested with BamHI and SbfI, and then ligated into the BamHI and SbfI sites of SIVmac239 proviral DNA clone. The proviral DNA clones were then screened by automatically sequencing using a Taq Dye Deoxy Terminator cycle Sequencer Kit (Applied Biosystems) individually using an internal primer (Primer. 39). Following the verification the mutations the proviral DNA clones were used for various future studies. […]
Residues A364 through V370 were inserted into the analogous position of the Gag SP1 domain in the DSB-resistant retrovirus SIV (Mac 239 isolate). […] Next, the effect of DSB on the Gag processing phenotype of each of the chimeric viruses was determined. […]

[2] = tested on: HIV-1 infectious molecular clone pNL4-3; experiment: EM analysis of HeLa cells transfected with pNL4-3; settings: DSB-treated samples
Description: FIG. 3. EM analysis of DSB-treated HIV-1 infected cells. […] Virions generated in the presence of DSB are characterized by an absence of conical, mature cores. In these samples the cores are uniformly spherical and often acentric. Secondly, many virions display an electron dense layer inside the lipid bilayer but outside the core (indicated with arrows in the DSB-treated sample panels).
HeLa cells were transfected with HIV-1 infectious molecular clone pNL4-3 and treated as described previously with DSB. Following treatment, DSB-treated infected cells were fixed in glutaraldehyde and analyzed by EM.

[3] = tested on: HIV-1 isolates selected for resistance to DSB; experiment: Virus replication assay in H9 cells (p24 ELISA), DSB-resistant and parental viruses
Description: Virus stocks derived as described above were further analyzed both phenotypically and genotypically to characterize the nature of their drug-resistance. The resistance of the viruses to 3-O-(3′,3′-dimethylsuccinyl)-betulinic acid (DSB) was determined in virus replication assays. Briefly, the virus stocks were first titered in H9 cells by quantitating the levels of p24 (by ELISA) in cultures 8 days after infection with serial 4-fold dilutions of virus. Virus input was then normalized for a second assay in which each virus is cultured for 8 days in the presence of serial 4-fold dilutions of drug. The IC50 for each virus was determined as the dilution of drug that reduced the p24 endpoint level by 50% as compared to the no-drug control. […] In a subsequent series of experiments, the A364V mutation was engineered into the HIV-1 NL4-3 proviral DNA, which was subsequently transfected into HeLa cells. Resulting virus was collected and used to test the activity of DSB in a viral replication assay, as described above.

PHA-stimulated PBMC = experiment: Toxicity in PHA-stimulated PBMC, XTT method; settings: 7 days
Description: Toxicity of DSB was analyzed by incubating with PHA-stimulated PBMC for 7 days at a range of concentrations, then determining cell viability using the XTT method. The 50% cytotoxic concentration was >30 μM, corresponding to an in vitro therapeutic index of approximately 5000.

For C=C(C)[C@@H]1CC[C@]2(C(=O)O)CC[C@]3(C)[C@H](CC[C@@H]4[C@@]5(C)CC[C@H](OC(=O)CC(C)(C)C(=O)O)C(C)(C)[C@@H]5CC[C@]43C)[C@@H]12 [DSB, 3-O-(3′,3′-dimethylsuccinyl)betulinic acid], the “% Decrease (β-galactosidase expression)” value [1] was 12%, the Gag processing phenotype (SIVmac239 chimeric virus) was “indicative of sensitivity to DSB” and the “virion morphology by EM” value [2] was “no mature viral particles were observed”. For the same compound, the IC50 ([3]; NL4-3 with engineered A364V mutation (DSB-resistant virus)) was 100 nM, the IC50 ([3]; two independently derived DSB-selected virus stocks) was > 2000 nM and the IC50 ([3]; virus cultured in parallel in the absence of drug) was 20 nM. The IC50 ([3]; wild-type NL4-3) was 10 nM and the 50% cytotoxic concentration (PHA-stimulated PBMC) was > 30 µM.
